Measured values: patent US20250144067A1, “PERSONALIZED STARVATION THERAPY FOR CANCER” (Faeth Therapeutics, Inc., priority 2021, published 2025)
Counter-ions that a name gives are not always drawn. Like-named read-outs stand apart in the source and are kept apart here.

Assays:
[1] = system: NCI-H292 lung cancer cells; assay: FDA drug screening, complete media vs cholesterol-free media without statin (TABLE 1); format: cell-based, human
[2] = system: NCI-H292 lung cancer cells; assay: FDA drug screening, complete media vs cholesterol-free media with simvastatin (TABLE 2); format: cell-based, human
[3] = Complete minus Cholesterol-free, >0 enhanced anti-cancer activity, about 0 neutral, <0 antagonist
[4] = NCI-H292 cells, cholesterol-free media without statin, FDA drug library screen
[5] = NCI-H292 cells, complete media, FDA drug library screen
[6] = NCI-H292 cells, FDA library drug in cholesterol-free media with simvastatin 0.04 μM
[7] = NCI-H292 cells, FDA library drug in complete media
[8] = complete media vs cholesterol-free media + simvastatin (0.04 μM), >0 enhanced anti-cancer activity, about 0 neutral, <0 antagonist
[9] = complete vs cholesterol-free media, >0 enhanced anti-cancer activity, about 0 neutral, <0 antagonist
[10] = NCI-H292 cells, FDA drug library screen, cholesterol-free media with simvastatin 0.04 μM
[11] = NCI-H292 cells, FDA drug library screen, complete media
[12] = complete media minus cholesterol-free media + simvastatin, >0 enhanced anti-cancer activity, about 0 neutral, <0 antagonist
[13] = Complete minus Cholesterol-free, […]
[14] = NCI-H292 cells in cholesterol-free media without statin
[15] = NCI-H292 cells in complete media
[16] = complete media minus cholesterol-free media + simvastatin, […]
[17] = NCI-H292 cells, cholesterol-free media without statin
[18] = complete vs cholesterol-free media, […]
[19] = Complete minus Cholesterol-free, greater than 0 enhanced anti-cancer activity, about 0 neutral, below 0 antagonist
[20] = NCI-H292 cells, FDA drug library screen, cholesterol-free media without statin
[21] = NCI-H292 cells, drug in cholesterol-free media with simvastatin 0.04 μM
[22] = NCI-H292 cells, drug in complete media
[23] = NCI-H292 cells, cholesterol-free media with simvastatin 0.04 μM, FDA drug library screen (TABLE 2)
[24] = NCI-H292 cells, complete media, FDA drug library screen (TABLE 2)
[25] = complete media minus cholesterol-free media + simvastatin (0.04 μM), >0 enhanced anti-cancer activity, about 0 neutral, <0 antagonist
[26] = Complete minus Cholesterol-free, greater than 0 enhanced anti-cancer activity, about 0 neutral, below 0 antagonists
[27] = complete vs cholesterol-free media, greater than 0 enhanced anti-cancer activity, about 0 neutral, below 0 antagonists
[28] = NCI-H292 cells, cholesterol-free media with simvastatin 0.04 μM, cell growth value in FDA drug screen
[29] = NCI-H292 cells, complete media, cell growth value in FDA drug screen

O=C(OCCOCCO)c1ccccc1Nc1cccc(C(F)(F)F)c1 [Etofenamate]
Difference [1, 3]: 0.02 | Cholesterol-free [1, 4]: 1.014 | Complete [1, 5]: 1.036 | Cholesterol-free media + simvastatin (0.04 μM) [2, 6]: 2.387 | Complete Media [2, 7]: 1.527 | Difference [2, 8]: −0.86

Cn1c(=O)c2c(ncn2CCO)n(C)c1=O [Etofylline]
Cholesterol-free [1, 4]: 1.261 | Complete [1, 5]: 1.355 | Difference [1, 9]: 0.09 | Cholesterol-free media + simvastatin (0.04 μM) [2, 10]: 0.885 | Complete Media [2, 11]: 1.042 | Difference [2, 12]: 0.16

CCOC(=O)c1cncn1[C@H](C)c1ccccc1 [Etomidate (hydrochloride)]
Difference [1, 13]: −0.60 | Cholesterol-free [1, 14]: 1.469 | Complete [1, 15]: 0.8733 | Cholesterol-free media + simvastatin (0.04 μM) [2, 10]: 0.8714 | Complete Media [2, 11]: 1.097 | Difference [2, 16]: 0.23

CCOC(=O)c1cncn1[C@H](C)c1ccccc1 [Etomidate]
Cholesterol-free [1, 17]: 1.122 | Complete ([1]; NCI-H292 cells, complete media): 0.7993 | Difference [1, 18]: −0.32 | Cholesterol-free media + simvastatin (0.04 μM) [2, 10]: 0.9001 | Complete Media [2, 11]: 1.134 | Difference [2, 16]: 0.23

COc1cc([C@@H]2c3cc4c(cc3[C@@H](O[C@@H]3O[C@@H]5CO[C@@H](C)O[C@H]5[C@H](O)[C@H]3O)[C@H]3COC(=O)[C@H]23)OCO4)cc(OC)c1OP(=O)(O)O [Etoposide phosphate]
Difference [1, 19]: −0.10 | Cholesterol-free [1, 20]: 0.7876 | Complete [1, 11]: 0.6917 | Cholesterol-free media + simvastatin (0.04 μM) [2, 21]: 0.9468 | Complete Media [2, 22]: 0.7461 | Difference [2, 8]: −0.20

COc1cc([C@@H]2c3cc4c(cc3[C@@H](O[C@@H]3O[C@@H]5CO[C@@H](C)O[C@H]5[C@H](O)[C@H]3O)[C@H]3COC(=O)[C@H]23)OCO4)cc(OC)c1O [Etoposide]
Difference [1, 3]: −0.29 | Cholesterol-free [1, 17]: 0.7069 | Complete ([1]; NCI-H292 cells, complete media): 0.4154 | Cholesterol-free media + simvastatin (0.04 μM) [2, 21]: 0.718 | Complete Media [2, 22]: 0.5014 | Difference [2, 8]: −0.22

Cc1ccc(-c2ncc(Cl)cc2-c2ccc(S(C)(=O)=O)cc2)cn1 [Etoricoxib]
Cholesterol-free [1, 4]: 1.045 | Complete [1, 5]: 1.321 | Difference [1, 9]: 0.28 | Cholesterol-free media + simvastatin (0.04 μM) [2, 23]: 1.501 | Complete Media [2, 24]: 1.49 | Difference [2, 25]: −0.01

Cc1cc(C#N)cc(C)c1Oc1nc(Nc2ccc(C#N)cc2)nc(N)c1Br [Etravirine]
Difference [1, 26]: −0.49 | Cholesterol-free [1, 14]: 1.424 | Complete [1, 15]: 0.9362 | Cholesterol-free media + simvastatin (0.04 μM) [2, 23]: 0.8346 | Complete Media [2, 24]: 0.8071 | Difference [2, 25]: −0.03

CCOC(=O)/C=C(C)/C=C/C=C(C)/C=C/c1c(C)cc(OC)c(C)c1C [Etretinate]
Difference [1, 13]: −0.71 | Cholesterol-free [1, 14]: 1.459 | Complete [1, 15]: 0.7469 | Cholesterol-free media + simvastatin (0.04 μM) [2, 10]: 0.824 | Complete Media [2, 11]: 1.055 | Difference [2, 16]: 0.23

COC(=O)c1cccc(CCN(C)CCC[C@@](C#N)(c2ccc(OC)c(OC)c2)C(C)C)c1 [Etripamil]
Cholesterol-free [1, 17]: 1.343 | Complete ([1]; NCI-H292 cells, complete media): 0.9721 | Difference [1, 18]: −0.37 | Cholesterol-free media + simvastatin (0.04 μM) ([2]; NCI-H292 cells, cholesterol-free media with simvastatin 0.04 μM, […]): 0.8109 | Complete Media ([2]; NCI-H292 cells, complete media, […]): 0.8724 | Difference [2, 16]: 0.06

C=CCc1ccc(O)c(OC)c1 [Eugenol]
Cholesterol-free [1, 17]: 1.418 | Complete ([1]; NCI-H292 cells, complete media): 1.048 | Difference [1, 27]: −0.37 | Cholesterol-free media + simvastatin (0.04 μM) [2, 10]: 0.8347 | Complete Media [2, 11]: 1.009 | Difference [2, 12]: 0.17

Cc1cc(-c2ccc(/N=N/c3ccc4c(S(=O)(=O)O)cc(S(=O)(=O)O)c(N)c4c3O)c(C)c2)ccc1/N=N/c1ccc2c(S(=O)(=O)O)cc(S(=O)(=O)O)c(N)c2c1O [Evans Blue]
Difference [1, 3]: −0.05 | Cholesterol-free [1, 4]: 1.165 | Complete [1, 5]: 1.11 | Cholesterol-free media + simvastatin (0.04 μM) [2, 21]: 1.142 | Complete Media [2, 22]: 0.9534 | Difference [2, 8]: −0.19

CO[C@H]1C[C@@H]2CC[C@@H](C)[C@@](O)(O2)C(=O)C(=O)N2CCCC[C@H]2C(=O)O[C@H]([C@H](C)C[C@@H]2CC[C@@H](OCCO)[C@H](OC)C2)CC(=O)[C@H](C)/C=C(\C)[C@@H](O)[C@@H](OC)C(=O)[C@H](C)C[C@H](C)/C=C/C=C/C=C/1C [Everolimus]
Difference [1, 3]: −0.23 | Cholesterol-free [1, 17]: 0.8236 | Complete ([1]; NCI-H292 cells, complete media): 0.5968 | Cholesterol-free media + simvastatin (0.04 μM) [2, 23]: 0.3946 | Complete Media [2, 24]: 0.373 | Difference [2, 25]: −0.02

C=C1C[C@@H]2[C@H](CC[C@]3(C)C(=O)CC[C@@H]23)[C@@]2(C)C=CC(=O)C=C12 [Exemestane]
Difference [1, 3]: −0.01 | Cholesterol-free [1, 4]: 1.056 | Complete [1, 5]: 1.048 | Cholesterol-free media + simvastatin (0.04 μM) [2, 6]: 1.215 | Complete Media [2, 7]: 0.9053 | Difference [2, 8]: −0.31

O=C1[C@H](CC[C@H](O)c2ccc(F)cc2)[C@@H](c2ccc(O)cc2)N1c1ccc(F)cc1 [Ezetimibe]
Difference [1, 26]: −0.66 | Cholesterol-free [1, 14]: 1.871 | Complete [1, 15]: 1.209 | Cholesterol-free media + simvastatin (0.04 μM) [2, 28]: 1.247 | Complete Media [2, 29]: 1.268 | Difference [2, 12]: 0.02

CCOc1ccc2nc(SCCN3CCOCC3)[nH]c2c1 [Fabomotizole (hydrochloride)]
Cholesterol-free [1, 17]: 1.463 | Complete ([1]; NCI-H292 cells, complete media): 1.068 | Difference [1, 27]: −0.39 | Cholesterol-free media + simvastatin (0.04 μM) [2, 21]: 1.167 | Complete Media [2, 22]: 0.9459 | Difference [2, 8]: −0.22

N#Cc1ccc(C2CCCc3cncn32)cc1 (stereo not drawn) [Fadrozole hydrochloride]
Cholesterol-free [1]: 1.643 | Complete [1]: 1.101 | Difference [1]: −0.54 | Cholesterol-free media + simvastatin (0.04 μM) [2]: 0.9854 | Complete Media [2]: 0.9477 | Difference [2]: −0.04

N#Cc1ccc(C2CCCc3cncn32)cc1 (stereo not drawn) [Fadrozole]
Cholesterol-free [1]: 0.5349 | Complete [1]: 1.016 | Difference [1]: 0.48 | Cholesterol-free media + simvastatin (0.04 μM) [2]: 1.426 | Complete Media [2]: 1.038 | Difference [2]: −0.39

CC(=O)OCC(CCn1cnc2cnc(N)nc21)COC(C)=O [Famciclovir]
Difference [1, 3]: −0.27 | Cholesterol-free [1, 17]: 1.022 | Complete ([1]; NCI-H292 cells, complete media): 0.7509 | Cholesterol-free media + simvastatin (0.04 μM) [2, 6]: 1.597 | Complete Media [2, 7]: 1.161 | Difference [2, 8]: −0.44

NC(N)=Nc1nc(CSCCC(N)=NS(N)(=O)=O)cs1 [Famotidine]
Difference [1, 19]: −0.07 | Cholesterol-free [1, 20]: 1.016 | Complete [1, 11]: 0.9424 | Cholesterol-free media + simvastatin (0.04 μM) [2, 6]: 1.666 | Complete Media [2, 7]: 1.298 | Difference [2, 8]: −0.37

Cc1oc(=O)oc1COC(=O)C1=C([C@H]2CCCO2)S[C@@H]2[C@@H]([C@@H](C)O)C(=O)N12 [Faropenem daloxate]
Difference [1, 26]: −0.54 | Cholesterol-free [1, 14]: 1.449 | Complete [1, 15]: 0.9042 | Cholesterol-free media + simvastatin (0.04 μM) [2, 10]: 1.071 | Complete Media [2, 11]: 0.9664 | Difference [2, 8]: −0.10

C[C@@H](O)[C@H]1C(=O)N2C(C(=O)O)=C([C@H]3CCCO3)S[C@H]12 [Faropenem sodium]
Difference [1, 3]: −0.02 | Cholesterol-free [1, 4]: 0.8692 | Complete [1, 5]: 0.8522 | Cholesterol-free media + simvastatin (0.04 μM) [2, 28]: 0.9421 | Complete Media [2, 29]: 0.984 | Difference [2, 12]: 0.04

O=S(=O)(c1cccc2cnccc12)N1CCCNCC1 [Fasudil (Hydrochloride)]
Difference [1, 19]: −0.12 | Cholesterol-free [1, 20]: 1.121 | Complete [1, 11]: 1 | Cholesterol-free media + simvastatin (0.04 μM) [2, 10]: 0.9921 | Complete Media [2, 11]: 1.233 | Difference [2, 12]: 0.24

NC(=O)c1nc(F)c[nH]c1=O [Favipiravir]
Difference [1, 3]: −0.06 | Cholesterol-free [1, 4]: 1.059 | Complete [1, 5]: 0.9966 | Cholesterol-free media + simvastatin (0.04 μM) [2, 21]: 1.347 | Complete Media [2, 22]: 1.105 | Difference [2, 8]: −0.24

Cc1nc(-c2ccc(OCC(C)C)c(C#N)c2)sc1C(=O)O [Febuxostat]
Cholesterol-free [1, 4]: 0.955 | Complete [1, 5]: 1.415 | Difference [1, 9]: 0.46 | Cholesterol-free media + simvastatin (0.04 μM) [2, 10]: 1.155 | Complete Media [2, 11]: 1.036 | Difference [2, 8]: −0.12

Cc1cnc(Nc2ccc(OCCN3CCCC3)cc2)nc1Nc1cccc(S(=O)(=O)NC(C)(C)C)c1 [Fedratinib (hydrochloride hydrate)]
Difference [1, 19]: −0.13 | Cholesterol-free [1, 20]: 0.469 | Complete [1, 11]: 0.341 | Cholesterol-free media + simvastatin (0.04 μM) [2, 21]: 0.6402 | Complete Media [2, 22]: 0.3774 | Difference [2, 8]: −0.26

Cc1cnc(Nc2ccc(OCCN3CCCC3)cc2)nc1Nc1cccc(S(=O)(=O)NC(C)(C)C)c1 [Fedratinib]
Difference [1, 3]: −0.27 | Cholesterol-free [1, 17]: 0.5626 | Complete ([1]; NCI-H292 cells, complete media): 0.2926 | Cholesterol-free media + simvastatin (0.04 μM) [2, 6]: 0.6759 | Complete Media [2, 7]: 0.284 | Difference [2, 8]: −0.39
